Results reported in ChEMBL document CHEMBL5385887, “Discovery of Sibiriline derivatives as novel receptor-interacting protein kinase 1 inhibitors” (Eur J Med Chem, 2023).
The source made the active and inactive calls. The calls are words filed in the database; no cut-off is given here.

How the values were obtained:
[1] = Cytotoxicity against mouse L929 cells by CCK-8 assay; type: toxicity, cell-based
[2] = target: T1, Receptor-interacting serine/threonine-protein kinase 1 (Homo sapiens, UniProt Q13546); experiment: Inhibition of RIPK1 (unknown origin) using MBP substrate incubated for 2 hrs by ADP-Glo kinase function assay
T1 sequence (Q13546 whole entry): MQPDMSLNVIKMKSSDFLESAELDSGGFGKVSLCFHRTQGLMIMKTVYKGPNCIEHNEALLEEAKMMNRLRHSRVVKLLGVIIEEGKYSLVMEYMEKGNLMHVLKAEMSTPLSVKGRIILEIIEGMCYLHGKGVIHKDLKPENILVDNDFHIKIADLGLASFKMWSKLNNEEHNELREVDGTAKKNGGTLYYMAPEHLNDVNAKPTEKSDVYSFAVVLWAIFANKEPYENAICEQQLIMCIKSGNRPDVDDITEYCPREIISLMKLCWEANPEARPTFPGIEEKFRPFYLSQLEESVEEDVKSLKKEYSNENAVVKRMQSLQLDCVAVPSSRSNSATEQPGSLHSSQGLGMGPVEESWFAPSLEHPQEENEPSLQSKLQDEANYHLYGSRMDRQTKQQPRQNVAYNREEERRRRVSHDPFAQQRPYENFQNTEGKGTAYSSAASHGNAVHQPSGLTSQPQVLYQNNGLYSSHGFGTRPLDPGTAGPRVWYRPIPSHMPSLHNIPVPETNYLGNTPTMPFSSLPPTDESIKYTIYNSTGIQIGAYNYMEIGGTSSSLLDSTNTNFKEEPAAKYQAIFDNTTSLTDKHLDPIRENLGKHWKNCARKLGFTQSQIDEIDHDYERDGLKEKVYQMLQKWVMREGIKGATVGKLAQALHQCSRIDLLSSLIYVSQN

L929 = experiment: Anti-necroptosis activity against TNFalpha/z-VAD-fmk-induced mouse L929 cell necroptosis model assessed as cell viability pretreated with compound for 1 hr followed by treated with TZ for 6 hrs; type: functional, cell-based
Mus musculus = experiment: In vivo anti-necroptotic effect in TNFalpha-induced systemic inflammatory response syndrome C57BL/6J mouse model assessed as reduction in hypothermic injury by measuring increase in survival at 10 mg/kg, ip followed by compound treatment after 1 hr injected moue TNFalpha and measured continuously upto 72 hrs; type: functional; conditions: time 73 hrs
HT-29 = experiment: Anti-necroptosis activity against TS-induced human HT-29 cell necroptosis model assessed as cell viability at 0.039 to 10 uM pretreated with compound for 1 hr followed by treated with TS for 12 hrs; type: functional, cell-based; conditions: dose 0.039-10 µM

SMILES | CC50 [1] [µM] | IC50 [2] [µM] | EC50 (L929) [µM] | survival at 10 mg/kg (Mus musculus) [%] | Activity (HT-29)
Oc1ccc(-c2ccc(-c3cc4cccnc4[nH]3)cc2)cc1 | > 10 | 0.23 | 0.35 | – | –
O=C(c1ccc(-c2cc3cccnc3[nH]2)cc1)N1CCCC1 | > 50 | 0.14 | 0.26 | – | –
N#Cc1ccc(-c2cnc3[nH]ccc3c2)cc1 | > 50 | 1.17 | 1.85 | – | –
O/N=C/c1ccc(-c2cnc3[nH]ccc3c2)cc1 | > 20 | 3.66 | 4.27 | – | –
CC(C)NC(=O)c1ccc(-c2cc3cccnc3[nH]2)cc1 | > 50 | 0.5 | 0.81 | – | –
Oc1ccccc1-c1cc2cccnc2[nH]1 | > 50 | 0.95 | 1.14 | – | –
Oc1ccc(-c2ccnc3[nH]ccc23)cc1 | > 50 | – | > 10 | – | –
Oc1ccc2ccc(-c3cc4cccnc4[nH]3)cc2c1 | > 50 | 2.6 | 1.42 | – | –
COc1ccc(-c2cc3ccc[nH]c-3n2)cc1 | > 50 | 0.09 | 0.15 | – | –
CC(C)(C)Oc1ccc(-c2cc3cccnc3[nH]2)cc1 | > 50 | 0.22 | 0.17 | – | –
CC(C)(C)NC(=O)c1ccc(-c2cc3cccnc3[nH]2)cc1 | > 50 | 0.09 | 0.17 | – | –
Oc1ccc(-c2cnc3nccnc3c2)cc1 | > 50 | – | > 10 | – | –
OCCc1ccc(-c2cc3cccnc3[nH]2)cc1 | > 50 | 0.23 | 0.3 | – | –
O=C(c1ccc(-c2cc3cccnc3[nH]2)cc1)N1CCNCC1 | > 50 | 0.1 | 0.09 | – | –
O=C(c1ccc(-c2cc3cccnc3[nH]2)cc1)N1CCCCC1 | > 50 | 0.12 | 0.13 | – | –
Oc1ccc(-c2cnc3[nH]cnc3c2)cc1 | > 50 | – | > 10 | – | –
CN1C(=O)C(Cc2c[nH]c3ccccc23)NC1=S (stereo unspecified) [NECROSTATIN] | – | – | – | 25 | –
O=C(NC1CC1)c1ccc(-c2cc3cccnc3[nH]2)cc1 | > 50 | 0.2 | 0.19 | – | –
Oc1ccc(-c2cnc3[nH]ccc3n2)cc1 | > 50 | 4.86 | 5.1 | – | –
Nc1ccc(-c2cc3cccnc3[nH]2)cc1 | > 50 | 0.24 | 0.27 | – | –
Oc1ccc(-c2cc3cccnc3[nH]2)cc1F | > 50 | 2.56 | 1.18 | – | –
OCc1ccc(-c2cc3cccnc3[nH]2)cc1 | > 50 | 0.17 | 0.14 | – | –

SMILES | CC50 [1] [µM] | IC50 [2] [µM] | EC50 (L929) [µM] | survival at 10 mg/kg (Mus musculus) [%] | Activity (HT-29)
O/N=C/c1ccc(-c2cc3cccnc3[nH]2)cc1 | > 50 | 0.27 | 0.67 | – | –
Oc1ccc(-c2cnc3[nH]ccc3c2)cc1 | > 50 | 1.09 | 1.47 | – | –
CNC(=O)c1ccc(-c2cc3cccnc3[nH]2)cc1 | > 50 | 0.093 | 0.095 | – | –
CCNC(=O)c1ccc(-c2cc3cccnc3[nH]2)cc1 | > 50 | 0.18 | 0.24 | – | –
CCCNC(=O)c1ccc(-c2cc3cccnc3[nH]2)cc1 | > 50 | 0.63 | 0.81 | – | –
c1ccc(Oc2ccc(-c3cc4cccnc4[nH]3)cc2)cc1 | > 50 | 9 | 7.54 | – | –
c1cnc2[nH]c(-c3ccc4ncsc4c3)cc2c1 | > 50 | 0.35 | 0.34 | – | –
CC(C)(C)Oc1ccc(-c2cnc3[nH]ccc3c2)cc1 | > 20 | – | > 10 | – | –
c1cnc2[nH]c(-c3ccc4c(c3)CCCO4)cc2c1 | > 50 | 1.18 | 0.89 | – | –
CN1CCN(C(=O)c2ccc(-c3cc4cccnc4[nH]3)cc2)CC1 | > 20 | 0.1 | 0.06 | – | –
CC(C)N(C(=O)c1ccc(-c2cc3cccnc3[nH]2)cc1)C(C)C | > 50 | 0.13 | 0.19 | – | –
Oc1cccc(-c2cnc3[nH]ccc3c2)c1 | > 50 | – | > 10 | – | –
c1ccc(Oc2ccccc2-c2cnc3[nH]ccc3c2)cc1 | > 20 | – | > 10 | – | –
Oc1cccc(-c2cc3cccnc3[nH]2)c1 | > 50 | 1.08 | 1.23 | – | –
Oc1ccc(-c2ccc3cc[nH]c3n2)cc1 | > 50 | – | > 10 | – | –
Oc1ccccc1-c1cnc2[nH]ccc2c1 | > 50 | – | > 10 | – | –
NC(=O)c1ccc(-c2cnc3[nH]ccc3c2)cc1 | > 50 | 0.17 | 0.71 | – | –
NC(=O)c1ccc(-c2cc3cccnc3[nH]2)cc1 | > 50 | 0.11 | 0.09 | – | –
Oc1ccc(-c2c[nH]c3ncccc23)cc1 | > 50 | – | > 10 | – | –
COc1cc(-c2cc3cccnc3[nH]2)ccc1O | > 50 | 0.12 | 0.14 | – | –
Oc1ccc(-c2cc3cccnc3[nH]2)cc1Cl | > 50 | 3.87 | 5.14 | – | –
Oc1ccc(-c2cc3cccnc3[nH]2)cc1 | > 50 | – | 1.31 | – | inactive
